Laboratory results reported in ChEMBL document CHEMBL4507268 (2021).

What was measured:
Settings in all cases: Compound concentration 1000.0 nM
[1] = molecular target: Activin receptor type-2A (Homo sapiens) (UniProt P27037)
[2] = molecular target: Tyrosine-protein kinase Blk (Homo sapiens) (UniProt P51451)
[3] = molecular target: T1, Calcium/calmodulin-dependent protein kinase type IV (Homo sapiens) (UniProt Q16566)
T1 sequence (whole entry): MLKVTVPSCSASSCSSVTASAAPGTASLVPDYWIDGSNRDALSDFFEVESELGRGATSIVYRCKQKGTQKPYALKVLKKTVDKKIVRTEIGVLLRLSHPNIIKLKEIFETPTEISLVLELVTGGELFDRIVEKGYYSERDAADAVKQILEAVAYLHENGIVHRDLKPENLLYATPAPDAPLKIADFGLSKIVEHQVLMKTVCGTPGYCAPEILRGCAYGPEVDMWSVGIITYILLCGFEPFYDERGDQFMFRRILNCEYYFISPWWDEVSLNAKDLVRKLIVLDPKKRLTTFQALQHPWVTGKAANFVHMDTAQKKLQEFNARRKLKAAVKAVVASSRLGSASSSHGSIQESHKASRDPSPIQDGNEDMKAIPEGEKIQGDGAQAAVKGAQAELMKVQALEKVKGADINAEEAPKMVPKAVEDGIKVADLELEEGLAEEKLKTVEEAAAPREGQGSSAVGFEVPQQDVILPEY

[4] = molecular target: Peripheral plasma membrane protein CASK (Homo sapiens) (UniProt O14936)
[5] = molecular target: Casein kinase II subunit alpha (Homo sapiens) (UniProt P68400)
[6] = molecular target: Glycogen synthase kinase-3 beta (Homo sapiens) (UniProt P49841)
[7] = molecular target: Tyrosine-protein kinase Lck (Homo sapiens) (UniProt P06239)
[8] = molecular target: MAP kinase-activated protein kinase 2 (Homo sapiens) (UniProt P49137)
[9] = molecular target: Dual specificity mitogen-activated protein kinase kinase 5 (Homo sapiens) (UniProt Q13163)
Sequence of Dual specificity mitogen-activated protein kinase kinase 5 (Homo sapiens) (Q13163 whole entry): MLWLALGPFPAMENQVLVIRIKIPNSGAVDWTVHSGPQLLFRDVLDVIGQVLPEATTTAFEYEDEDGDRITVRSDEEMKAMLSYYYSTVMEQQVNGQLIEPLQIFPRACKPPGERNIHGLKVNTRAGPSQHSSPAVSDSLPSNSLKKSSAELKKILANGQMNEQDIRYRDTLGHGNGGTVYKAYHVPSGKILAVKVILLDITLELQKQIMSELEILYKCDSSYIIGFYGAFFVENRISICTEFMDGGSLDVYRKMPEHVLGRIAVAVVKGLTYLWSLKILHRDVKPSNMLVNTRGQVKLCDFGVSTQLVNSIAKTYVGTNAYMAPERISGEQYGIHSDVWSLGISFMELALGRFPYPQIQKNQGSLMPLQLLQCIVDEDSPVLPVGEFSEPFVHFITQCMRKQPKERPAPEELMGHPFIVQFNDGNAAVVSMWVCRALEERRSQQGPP

[10] = molecular target: T2, Serine/threonine-protein kinase NLK (Homo sapiens) (UniProt Q9UBE8)
T2 sequence (whole entry): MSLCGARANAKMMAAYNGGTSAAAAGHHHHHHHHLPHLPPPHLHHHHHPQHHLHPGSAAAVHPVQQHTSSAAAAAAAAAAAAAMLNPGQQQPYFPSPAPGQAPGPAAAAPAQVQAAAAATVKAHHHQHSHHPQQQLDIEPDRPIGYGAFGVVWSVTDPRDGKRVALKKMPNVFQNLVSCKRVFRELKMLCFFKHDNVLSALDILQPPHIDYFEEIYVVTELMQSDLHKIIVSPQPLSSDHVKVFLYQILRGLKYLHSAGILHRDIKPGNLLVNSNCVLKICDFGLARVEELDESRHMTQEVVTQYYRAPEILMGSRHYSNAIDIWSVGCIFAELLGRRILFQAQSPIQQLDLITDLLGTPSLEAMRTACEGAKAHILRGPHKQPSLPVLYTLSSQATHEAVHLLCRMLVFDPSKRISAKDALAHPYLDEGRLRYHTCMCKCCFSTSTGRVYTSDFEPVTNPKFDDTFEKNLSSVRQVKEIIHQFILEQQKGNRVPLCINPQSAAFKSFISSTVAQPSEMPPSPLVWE

[11] = molecular target: Mitogen-activated protein kinase 11 (Homo sapiens) (UniProt Q15759)
[12] = molecular target: Cyclin-dependent kinase 15 (Homo sapiens) (UniProt Q96Q40)
Sequence of Cyclin-dependent kinase 15 (Homo sapiens) (Q96Q40 whole entry, canonical isoform): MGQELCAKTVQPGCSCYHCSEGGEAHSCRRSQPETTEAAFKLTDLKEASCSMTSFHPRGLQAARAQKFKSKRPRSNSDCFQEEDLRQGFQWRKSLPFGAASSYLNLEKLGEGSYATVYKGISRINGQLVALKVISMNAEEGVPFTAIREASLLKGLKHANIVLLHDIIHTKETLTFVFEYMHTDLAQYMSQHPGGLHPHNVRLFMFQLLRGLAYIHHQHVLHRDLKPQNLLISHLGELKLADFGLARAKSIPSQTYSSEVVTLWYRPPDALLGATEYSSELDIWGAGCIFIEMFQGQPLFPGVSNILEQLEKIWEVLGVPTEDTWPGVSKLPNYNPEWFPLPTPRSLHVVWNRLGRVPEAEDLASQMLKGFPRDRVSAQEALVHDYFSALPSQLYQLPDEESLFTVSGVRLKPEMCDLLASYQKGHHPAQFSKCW

[13] = molecular target: Phosphatidylinositol 4,5-bisphosphate 3-kinase catalytic subunit alpha isoform (Homo sapiens) (UniProt P42336)
[14] = test system: Phosphatidylinositol 4,5-bisphosphate 3-kinase catalytic subunit alpha isoform (Homo sapiens), P42336 [H1047Y]
Sequence of Phosphatidylinositol 4,5-bisphosphate 3-kinase catalytic subunit alpha isoform (Homo sapiens), P42336 [H1047Y] (P42336 whole entry H1047Y, canonical isoform): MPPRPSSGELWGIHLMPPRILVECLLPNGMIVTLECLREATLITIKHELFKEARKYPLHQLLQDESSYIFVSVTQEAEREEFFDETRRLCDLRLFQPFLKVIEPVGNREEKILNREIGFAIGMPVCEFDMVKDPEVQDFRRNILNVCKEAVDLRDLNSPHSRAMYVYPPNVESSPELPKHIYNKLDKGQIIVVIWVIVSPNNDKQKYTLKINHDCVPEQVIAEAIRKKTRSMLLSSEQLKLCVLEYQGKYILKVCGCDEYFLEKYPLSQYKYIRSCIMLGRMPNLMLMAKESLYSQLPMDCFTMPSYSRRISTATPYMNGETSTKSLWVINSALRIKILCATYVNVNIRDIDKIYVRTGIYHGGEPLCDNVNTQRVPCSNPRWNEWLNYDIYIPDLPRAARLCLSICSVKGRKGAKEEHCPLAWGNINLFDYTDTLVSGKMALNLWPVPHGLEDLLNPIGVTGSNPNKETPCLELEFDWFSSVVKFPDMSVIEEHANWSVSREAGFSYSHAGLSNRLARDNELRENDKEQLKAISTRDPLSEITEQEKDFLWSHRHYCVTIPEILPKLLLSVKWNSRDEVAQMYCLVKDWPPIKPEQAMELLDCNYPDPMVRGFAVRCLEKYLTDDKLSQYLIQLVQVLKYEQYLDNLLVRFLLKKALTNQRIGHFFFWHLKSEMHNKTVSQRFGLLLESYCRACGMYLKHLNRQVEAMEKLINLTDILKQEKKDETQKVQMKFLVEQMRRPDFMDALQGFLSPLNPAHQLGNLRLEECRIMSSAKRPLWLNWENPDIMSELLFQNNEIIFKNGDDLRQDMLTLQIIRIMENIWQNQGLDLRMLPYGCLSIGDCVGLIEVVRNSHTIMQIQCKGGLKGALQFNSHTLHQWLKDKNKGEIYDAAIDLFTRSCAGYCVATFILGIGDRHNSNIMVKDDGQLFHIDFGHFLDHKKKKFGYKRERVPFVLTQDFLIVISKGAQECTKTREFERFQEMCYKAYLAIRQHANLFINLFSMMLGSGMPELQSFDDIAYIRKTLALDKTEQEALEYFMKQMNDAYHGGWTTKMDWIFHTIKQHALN

[15] = test system: Phosphatidylinositol 4,5-bisphosphate 3-kinase catalytic subunit alpha isoform (Homo sapiens), P42336 [Q546K]
Sequence of Phosphatidylinositol 4,5-bisphosphate 3-kinase catalytic subunit alpha isoform (Homo sapiens), P42336 [Q546K] (P42336 whole entry Q546K, canonical isoform): as the sequence (P42336 whole entry H1047Y, canonical isoform) above, with Q546K, Y1047H counted along it

[16] = molecular target: Phosphatidylinositol 4,5-bisphosphate 3-kinase catalytic subunit beta isoform (Homo sapiens) (UniProt P42338)
[17] = molecular target: Serine/threonine-protein kinase pim-2 (Homo sapiens) (UniProt Q9P1W9)
Sequence of Serine/threonine-protein kinase pim-2 (Homo sapiens) (Q9P1W9 whole entry, looked up): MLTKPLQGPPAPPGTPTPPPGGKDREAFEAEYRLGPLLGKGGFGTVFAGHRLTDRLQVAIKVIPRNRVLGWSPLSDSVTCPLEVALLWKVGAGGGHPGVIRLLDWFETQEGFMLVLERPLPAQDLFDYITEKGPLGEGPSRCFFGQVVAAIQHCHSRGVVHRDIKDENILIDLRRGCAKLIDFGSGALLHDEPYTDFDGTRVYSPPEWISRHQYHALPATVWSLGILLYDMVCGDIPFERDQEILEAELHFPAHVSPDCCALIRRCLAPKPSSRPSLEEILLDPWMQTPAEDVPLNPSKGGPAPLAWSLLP

[18] = molecular target: Proto-oncogene tyrosine-protein kinase receptor Ret (Homo sapiens) (UniProt P07949)
Sequence of Proto-oncogene tyrosine-protein kinase receptor Ret (Homo sapiens) (P07949 whole entry): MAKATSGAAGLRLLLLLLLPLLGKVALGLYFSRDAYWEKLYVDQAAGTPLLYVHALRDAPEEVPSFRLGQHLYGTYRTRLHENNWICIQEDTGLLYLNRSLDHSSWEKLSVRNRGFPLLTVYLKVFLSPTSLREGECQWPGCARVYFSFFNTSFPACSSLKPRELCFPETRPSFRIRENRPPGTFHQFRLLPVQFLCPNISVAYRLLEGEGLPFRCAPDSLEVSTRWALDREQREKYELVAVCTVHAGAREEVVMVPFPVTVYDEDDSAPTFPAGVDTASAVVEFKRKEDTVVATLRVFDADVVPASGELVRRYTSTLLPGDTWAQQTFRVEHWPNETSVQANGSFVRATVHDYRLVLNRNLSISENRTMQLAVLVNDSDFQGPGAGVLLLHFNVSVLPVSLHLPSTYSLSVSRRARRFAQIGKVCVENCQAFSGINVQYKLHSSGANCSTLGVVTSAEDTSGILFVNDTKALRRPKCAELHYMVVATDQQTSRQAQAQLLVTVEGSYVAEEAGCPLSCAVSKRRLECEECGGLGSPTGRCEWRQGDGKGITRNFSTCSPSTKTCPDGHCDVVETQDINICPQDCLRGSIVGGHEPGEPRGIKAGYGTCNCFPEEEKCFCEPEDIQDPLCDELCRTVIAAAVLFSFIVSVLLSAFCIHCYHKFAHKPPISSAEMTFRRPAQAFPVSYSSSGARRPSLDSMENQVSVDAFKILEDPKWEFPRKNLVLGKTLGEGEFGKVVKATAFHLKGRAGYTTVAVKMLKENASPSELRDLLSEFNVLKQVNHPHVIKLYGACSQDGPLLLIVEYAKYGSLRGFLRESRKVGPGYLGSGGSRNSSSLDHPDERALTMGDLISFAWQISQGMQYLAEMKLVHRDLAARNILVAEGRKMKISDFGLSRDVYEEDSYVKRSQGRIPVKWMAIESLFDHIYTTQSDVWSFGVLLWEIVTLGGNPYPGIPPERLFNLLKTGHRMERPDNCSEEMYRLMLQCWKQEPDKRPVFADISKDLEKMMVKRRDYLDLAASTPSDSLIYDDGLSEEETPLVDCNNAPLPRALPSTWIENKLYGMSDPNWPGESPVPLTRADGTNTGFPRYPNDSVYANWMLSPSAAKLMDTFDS

[19] = test system: Proto-oncogene tyrosine-protein kinase receptor Ret (Homo sapiens), P07949 [V804M]
[20] = molecular target: T3, Serine/threonine-protein kinase Sgk3 (Homo sapiens) (UniProt Q96BR1)
T3 sequence (whole entry): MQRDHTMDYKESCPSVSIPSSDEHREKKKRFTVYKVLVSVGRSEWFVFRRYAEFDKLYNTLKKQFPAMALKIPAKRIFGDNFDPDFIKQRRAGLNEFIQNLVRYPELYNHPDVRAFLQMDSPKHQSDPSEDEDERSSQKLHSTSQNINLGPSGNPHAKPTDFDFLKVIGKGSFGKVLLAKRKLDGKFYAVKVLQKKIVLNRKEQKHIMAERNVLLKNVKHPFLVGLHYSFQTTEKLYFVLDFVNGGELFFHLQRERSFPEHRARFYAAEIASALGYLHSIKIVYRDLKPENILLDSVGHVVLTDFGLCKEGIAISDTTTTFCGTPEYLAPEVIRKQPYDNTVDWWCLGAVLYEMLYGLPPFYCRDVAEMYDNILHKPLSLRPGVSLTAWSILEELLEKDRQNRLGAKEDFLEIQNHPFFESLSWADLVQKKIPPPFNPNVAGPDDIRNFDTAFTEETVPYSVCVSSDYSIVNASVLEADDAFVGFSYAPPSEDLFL

[21] = molecular target: Serine/threonine-protein kinase 36 (Homo sapiens) (UniProt Q9NRP7)
[22] = molecular target: STE20/SPS1-related proline-alanine-rich protein kinase (Homo sapiens) (UniProt Q9UEW8)
[23] = molecular target: Tyrosine-protein kinase SYK (Homo sapiens) (UniProt P43405)
[24] = molecular target: Serine/threonine-protein kinase WNK2 (Homo sapiens) (UniProt Q9Y3S1)

Measured: residual activity

Sequence of Tyrosine-protein kinase Blk (Homo sapiens) (P51451 2-505 limits assumed): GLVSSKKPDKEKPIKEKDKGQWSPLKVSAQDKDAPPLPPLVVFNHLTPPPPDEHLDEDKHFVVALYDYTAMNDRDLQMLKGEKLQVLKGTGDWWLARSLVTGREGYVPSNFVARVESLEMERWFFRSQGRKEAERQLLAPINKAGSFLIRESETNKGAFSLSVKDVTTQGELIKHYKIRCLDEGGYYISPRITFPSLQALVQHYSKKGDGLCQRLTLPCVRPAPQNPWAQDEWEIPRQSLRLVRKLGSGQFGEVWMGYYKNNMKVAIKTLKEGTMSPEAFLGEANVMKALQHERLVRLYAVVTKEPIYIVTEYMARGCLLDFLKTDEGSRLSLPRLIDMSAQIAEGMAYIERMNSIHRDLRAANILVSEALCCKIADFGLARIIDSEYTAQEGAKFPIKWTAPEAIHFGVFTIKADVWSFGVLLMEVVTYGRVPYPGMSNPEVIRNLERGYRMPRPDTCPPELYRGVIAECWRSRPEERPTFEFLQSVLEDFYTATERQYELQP

Cc1nc(C2CCN(C(=O)c3ccc(OC(F)(F)F)cc3N)CC2)c2ncc(N3CCN(C)CC3)cc2n1 [BAY-693]
inactive: [1] 100% | [2] 97% | [3] 95% | [4] 87% | [5] 99% | [6] 100% | [7] 100% | [8] 100% | [9] 83% | [10] 100% | [11] 100% | [12] 100% | [13] 81% | [14] 69% | [15] 88% | [16] 94% | [17] 100% | [18] 100% | [19] 100% | [20] 93% | [21] 100% | [22] 100% | [23] 98% | [24] 100%

CN1CCN(c2cnc3c(C4CCN(C(=O)c5ccc(OC(F)(F)F)cc5N)CC4)ncnc3c2)CC1 [BAY-885]
inactive: [1] 100% | [2] 91% | [3] 94% | [4] 89% | [5] 100% | [6] 100% | [7] 100% | [8] 100% | [9] 86% | [10] 100% | [11] 98% | [12] 100% | [13] 95% | [14] 92% | [15] 100% | [16] 100% | [17] 100% | [18] 100% | [19] 100% | [20] 100% | [21] 75% | [22] 81% | [23] 100% | [24] 100%
